Test results: PubChem BioAssay AID330 (DTP/NCI, 2004)
Where “and” joins values, the source holds several entries; their conditions need not be identical. Equal values may be shown once. Toxic doses and inconclusive results are not listed.

System: P388 leukemia ip, CD2F1 mice, survival T/C
Assay: NCI In Vivo Anticancer Drug Screen. Data for tumor model P388 Leukemia (intraperitoneal) in CD2F1 (CDF1) mice
Conditions: endpoint: median survival time, higher = longer survival
Outline: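 Mice carrying the transplanted tumor received test compound or vehicle. Survival was recorded in each group, and the value is the treated-group measurement divided by that of the vehicle-treated control group.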

[1] = dose: 50.0 mg/kg/injection, schedule: Q01DX005 (ip), vehicle: saline with Tween-80
[2] = dose: 100.0 mg/kg/injection, schedule: Q01DX005 (ip), vehicle: saline with Tween-80
[3] = dose: 200.0 mg/kg/injection, schedule: Q01DX005 (ip), vehicle: saline with Tween-80
[4] = dose: 50.0 mg/kg/injection, schedule: Q01DX009 (ip), vehicle: saline with Tween-80
[5] = dose: 100.0 mg/kg/injection, schedule: Q01DX009 (ip), vehicle: saline with Tween-80
[6] = dose: 200.0 mg/kg/injection, schedule: Q01DX009 (ip), vehicle: saline with Tween-80
[7] = dose: 60.0 mg/kg/injection, schedule: Q01DX005 (ip), vehicle: saline with Tween-80
[8] = dose: 120.0 mg/kg/injection, schedule: Q01DX005 (ip), vehicle: saline with Tween-80
[9] = dose: 240.0 mg/kg/injection, schedule: Q01DX005 (ip), vehicle: saline with Tween-80

CC(=O)C1OC1c1ccccn1 (configuration not stated)
T/C (dose: 25.0 mg/kg/injection, schedule: Q01DX005 (ip), vehicle: saline): 102 % of control | T/C (dose: 25.0 mg/kg/injection, schedule: Q01DX005 (ip), vehicle: suspension in saline): 103 % of control | T/C (dose: 50.0 mg/kg/injection, schedule: Q01DX005 (ip), vehicle: saline): 102 % of control | T/C (dose: 50.0 mg/kg/injection, schedule: Q01DX005 (ip), vehicle: suspension in saline): 100 % of control | T/C (dose: 100.0 mg/kg/injection, schedule: Q01DX005 (ip), vehicle: saline): 104 % of control | T/C (dose: 100.0 mg/kg/injection, schedule: Q01DX005 (ip), vehicle: suspension in saline): 110 % of control | T/C (dose: 200.0 mg/kg/injection, schedule: Q01DX005 (ip), vehicle: saline): 102 % of control | T/C (dose: 200.0 mg/kg/injection, schedule: Q01DX005 (ip), vehicle: suspension in saline): 100 % of control

O=C(Nc1cccc(Cl)c1)OCC#CCCl
T/C (dose: 50.0 mg/kg/injection, schedule: Q01DX005 (ip), vehicle: saline + Tween-80 + alcohol): 100 % of control | T/C (dose: 100.0 mg/kg/injection, schedule: Q01DX005 (ip), vehicle: saline + Tween-80 + alcohol): 107 % of control | T/C (dose: 200.0 mg/kg/injection, schedule: Q01DX005 (ip), vehicle: saline + Tween-80 + alcohol): 108 % of control

Nc1ccccc1NC(=O)c1nc2ccccc2[nH]1
T/C (dose: 100.0 mg/kg/injection, schedule: Q04DX003 (ip), vehicle: Klucel (hydroxypropylcellulose) (HPC)): 106 % of control | T/C (dose: 200.0 mg/kg/injection, schedule: Q04DX003 (ip), vehicle: Klucel (hydroxypropylcellulose) (HPC)): 97 % of control | T/C (dose: 400.0 mg/kg/injection, schedule: Q04DX003 (ip), vehicle: Klucel (hydroxypropylcellulose) (HPC)): 97 % of control

O=C(O)C(=O)O.O=C([O-])C(=O)[O-].O=C([O-])C(=O)[O-].[NH-]CC[NH-].[NH-]CC[NH-].[NH-]CC[NH-].[Ru+4].[Ru+5]
T/C (dose: 25.0 mg/kg/injection, schedule: Q04DX003 (ip), vehicle: water): 117 % of control | T/C (dose: 50.0 mg/kg/injection, schedule: Q04DX003 (ip), vehicle: water): 151 % of control

COC1=CC(=O)C2=C(OCO2)C1=O
T/C (dose: 6.25 mg/kg/injection, schedule: Q04DX002 (ip), vehicle: saline with Tween-80): 104 % of control | T/C (dose: 12.5 mg/kg/injection, schedule: Q04DX002 (ip), vehicle: saline with Tween-80): 109 % of control | T/C (dose: 25.0 mg/kg/injection, schedule: Q04DX002 (ip), vehicle: saline with Tween-80): 103 % of control

CCCC1(CC)CNC(=O)NC1=O (configuration not stated)
T/C [1]: 100 % of control | T/C [2]: 93 % of control | T/C [3]: 99 % of control

NC(=S)N/N=C\C(=N/NC(N)=S)c1cccc([N+](=O)[O-])c1
T/C (dose: 12.5 mg/kg/injection, schedule: Q01DX009 (ip), vehicle: saline with Tween-80): 92 % of control | T/C (dose: 25.0 mg/kg/injection, schedule: Q01DX009 (ip), vehicle: saline with Tween-80): 92 % of control | T/C [4]: 93 % of control and 96 % of control | T/C [5]: 96 % of control | T/C [6]: 96 % of control

C=CC1(O)CCCCC1
T/C (dose: 50.0 mg/kg/injection, schedule: Q01DX009 (ip), vehicle: saline): 97 % of control | T/C (dose: 100.0 mg/kg/injection, schedule: Q01DX009 (ip), vehicle: saline): 100 % of control | T/C (dose: 200.0 mg/kg/injection, schedule: Q01DX009 (ip), vehicle: saline): 107 % of control

CCn1c(=O)c(Cl)c2n(CC)c3ccccc3n2c1=O
T/C [7]: 97 % of control | T/C [8]: 89 % of control | T/C [9]: 87 % of control

CN(C)CCN1C(=O)CN=C(c2ccccc2Cl)c2cc(Cl)ccc21
T/C (dose: 60.0 mg/kg/injection, schedule: Q01DX005 (ip), vehicle: saline): 102 % of control | T/C (dose: 120.0 mg/kg/injection, schedule: Q01DX005 (ip), vehicle: saline): 99 % of control | T/C (dose: 240.0 mg/kg/injection, schedule: Q01DX005 (ip), vehicle: saline): 95 % of control

CCN(C(=S)NNC(=S)N/N=C(\C)c1ccccn1)c1ccccc1
T/C (dose: 6.25 mg/kg/injection, schedule: Q01DX005 (ip), vehicle: saline with Tween-80): 94 % of control | T/C (dose: 12.5 mg/kg/injection, schedule: Q01DX005 (ip), vehicle: saline with Tween-80): 107 % of control | T/C (dose: 25.0 mg/kg/injection, schedule: Q01DX005 (ip), vehicle: saline with Tween-80): 109 % of control | T/C [1]: 112 % of control | T/C [2]: 120 % of control

CCCC(C)C(=O)N(C(C)=O)c1ccc(Cl)c(Cl)c1 (configuration not stated)
T/C [4]: 103 % of control | T/C [5]: 103 % of control | T/C [6]: 110 % of control

Cc1ccc(NC(=O)Oc2cc(C)c(C)cc2Cl)c([N+](=O)[O-])c1
T/C [4]: 107 % of control | T/C [5]: 104 % of control | T/C [6]: 112 % of control

O=C1NN=C(c2ccc(Br)cc2)CS1
T/C [4]: 92 % of control and 97 % of control | T/C [5]: 101 % of control and 87 % of control | T/C [6]: 113 % of control and 120 % of control

O=c1cc(NC2OC(CO)C(O)C(O)C2O)[nH]c(=O)[nH]1 (configuration not stated)
T/C [7]: 96 % of control | T/C [8]: 102 % of control | T/C [9]: 104 % of control

Cc1ccc2nc(CC(=O)c3ccc4ccccc4c3)c(=O)[nH]c2c1
T/C [7]: 99 % of control | T/C [8]: 92 % of control | T/C [9]: 94 % of control

Cc1cc(C)c(S(=O)(=O)N/N=C/C(=O)O)c(C)c1
T/C (dose: 12.5 mg/kg/injection, schedule: Q01DX009 (ip), vehicle: other): 112 % of control and 117 % of control | T/C (dose: 25.0 mg/kg/injection, schedule: Q01DX009 (ip), vehicle: other): 122 % of control | T/C (dose: 100.0 mg/kg/injection, schedule: Q01DX009 (ip), vehicle: other): 154 % of control

CC(C)C1[NH][Sn]2([NH]C(C(C)C)C(=O)[O]2)[O]C1=O (configuration not stated)
T/C (dose: 50.0 mg/kg/injection, schedule: Q01DX005 (ip), vehicle: Klucel (hydroxypropylcellulose) (HPC)): 97 % of control | T/C (dose: 100.0 mg/kg/injection, schedule: Q01DX005 (ip), vehicle: Klucel (hydroxypropylcellulose) (HPC)): 106 % of control

O=C1C=CC(Cc2ccccc2)N1C(=O)c1ccccc1 (configuration not stated)
T/C [1]: 99 % of control | T/C [2]: 100 % of control | T/C [3]: 97 % of control

CS(=O)(=O)c1cc(C(=O)O)cc(NCc2ccccc2)c1Oc1ccccc1
T/C [4]: 106 % of control | T/C [5]: 96 % of control | T/C [6]: 102 % of control
